The text below walks through data of patent US20210236575A1 (priority 2018, published 2021).

Where two headings read alike, the source gives them in different places.

Assay [1] concerns the target T1, CB1R (Homo sapiens, UniProt P21554).
T1 construct: expressed in transfected cells; host or cells: HEK293T (HEK293T-CB1), transiently co-transfected with CRE-luc reporter
The assay can be described thus: cell-based.

The subject of the next assay is NF-κB. As to the kind of experiment: NF-κB luciferase assay, TNFα-induced, NIH-3T3-KBF-Luc cells.
The next assay has as its target T2, COX-2 (Homo sapiens, UniProt P35354).
T2 sequence (P35354 18-604): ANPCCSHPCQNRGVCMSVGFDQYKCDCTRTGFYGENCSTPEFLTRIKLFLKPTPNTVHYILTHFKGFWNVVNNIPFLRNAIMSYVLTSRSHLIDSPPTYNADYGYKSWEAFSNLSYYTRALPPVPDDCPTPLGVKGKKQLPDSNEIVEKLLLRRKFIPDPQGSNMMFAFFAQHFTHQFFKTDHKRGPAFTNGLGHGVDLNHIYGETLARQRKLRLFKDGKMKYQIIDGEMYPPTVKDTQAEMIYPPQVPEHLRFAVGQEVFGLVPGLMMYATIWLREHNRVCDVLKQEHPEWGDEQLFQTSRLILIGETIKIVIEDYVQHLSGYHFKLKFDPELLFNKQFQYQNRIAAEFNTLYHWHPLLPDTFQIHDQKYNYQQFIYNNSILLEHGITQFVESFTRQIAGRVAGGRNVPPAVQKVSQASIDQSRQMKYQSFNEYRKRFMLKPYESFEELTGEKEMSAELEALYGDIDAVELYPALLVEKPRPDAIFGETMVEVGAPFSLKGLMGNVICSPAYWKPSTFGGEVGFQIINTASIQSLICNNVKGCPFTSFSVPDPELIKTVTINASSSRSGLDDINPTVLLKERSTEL
To be noted: Takeda et al 2008; cited from earlier work.

Assay [2] has as its target T1, CB1R. It is filed as cell-based.
A further assay has as its target CB2R (Homo sapiens, UniProt P34972). The assay can be described thus: CB2R agonism assay, HEK293T-CB2 cells with CRE-Luc reporter, forskolin-stimulated. To be noted: for Conclusions: Is CB2R agonist effect observed? / Experiment 1 % of activity / Experiment 2 % of activity / Experiment 3 % of activity: THC 10 μM or THCA 10 μM alone; for Experiment 1 % of activity / Experiment 2 % of activity / Experiment 3 % of activity: forskolin = 100%.

The mark [3] stands for this setting: read-out: Experiment 1 % of activity.
Setting [4] is: read-out: Experiment 2 % of activity.
Where [5] appears, read: read-out: Experiment 3 % of activity.
Where [6] appears, read: THC 10 μM or CBD 10 μM alone, TNFα = 100%.
Where [7] appears, read: THCA 10 μM or THC 10 μM alone, CP55940 = 100%.
Where [8] appears, read: TNFα 30 ng/mL (control without inhibitor).

Sequence of CB2R (P34972 whole entry): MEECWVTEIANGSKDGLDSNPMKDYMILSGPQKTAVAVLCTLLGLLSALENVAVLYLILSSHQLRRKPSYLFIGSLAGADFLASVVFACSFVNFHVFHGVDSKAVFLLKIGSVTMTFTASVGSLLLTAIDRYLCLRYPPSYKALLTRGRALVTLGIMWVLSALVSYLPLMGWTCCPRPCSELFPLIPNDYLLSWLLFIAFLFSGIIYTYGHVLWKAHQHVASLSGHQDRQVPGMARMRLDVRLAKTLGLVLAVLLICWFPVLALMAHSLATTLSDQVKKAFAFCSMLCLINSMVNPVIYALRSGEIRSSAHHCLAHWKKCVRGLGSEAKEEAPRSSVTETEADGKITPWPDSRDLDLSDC
T1 sequence (P21554 whole entry): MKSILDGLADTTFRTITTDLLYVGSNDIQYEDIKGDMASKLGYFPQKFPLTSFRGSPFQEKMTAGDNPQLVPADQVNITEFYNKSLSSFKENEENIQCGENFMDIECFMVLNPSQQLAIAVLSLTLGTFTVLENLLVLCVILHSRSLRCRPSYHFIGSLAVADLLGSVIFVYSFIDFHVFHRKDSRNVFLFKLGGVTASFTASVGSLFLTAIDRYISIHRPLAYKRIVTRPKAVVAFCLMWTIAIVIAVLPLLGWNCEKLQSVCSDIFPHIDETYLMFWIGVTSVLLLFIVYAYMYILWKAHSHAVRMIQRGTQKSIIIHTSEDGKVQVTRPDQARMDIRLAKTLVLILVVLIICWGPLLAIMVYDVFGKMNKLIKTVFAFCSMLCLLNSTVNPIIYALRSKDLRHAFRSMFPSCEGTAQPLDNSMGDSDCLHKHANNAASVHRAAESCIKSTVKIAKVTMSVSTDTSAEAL

For the molecule `C=C(C)[C@@H]1CCC(C)=C[C@H]1c1c(O)cc(CCCCC)cc1O` [CBD, cannabidiol], the “Conclusions: Is CB1R antagonist effect observed?” value at CB1R [1] (CBD 1 μM alone) is “Negative”. In addition, the activity at 1 µM on CB1R [1] (CBD 1 μM alone, CP55940 = 100%, read-out: Experiment 1 % of activity) came out at 61.3%; at CB1R [1] (CBD 1 μM alone, CP55940 = 100%, read-out: Experiment 2 % of activity), 55.9%; at CB1R [1] (CBD 1 μM alone, CP55940 = 100%, read-out: Experiment 3 % of activity), 57.4%. Further, the “Conclusions: Is NF-κB inhibitor effect observed?” value in the assay on NF-κB (THC 10 μM or CBD 10 μM alone) is reported as “Negative”. For the same molecule, the values for the activity at 10 µM in the assay with NF-κB (setting [3]), with NF-κB (setting [4]) and in the assay on NF-κB (setting [5]) were 136%, 86.4% and 106%, respectively.

Regarding `C=C(C)[C@@H]1CCC(C)=C[C@H]1c1c(O)cc(CCCCC)c(C(=O)O)c1O` [CBDA, cannabidiolic acid], the “selectivity for COX-2 than COX-1 inhibition” value at COX-2 was 9 fold.

With `CCCCCCC(C)(C)c1ccc([C@@H]2C[C@H](O)CC[C@H]2CCCO)c(O)c1` [CP], on CB1R [2], the “Conclusions: Is CB1R agonist effect observed?” value is “+ (key: +: positive result (CB1R activity ≥2.5-fold increase) are considered agonists of CB1R activity)”, the “Experiment 1 Fold change” value was 2.5 fold, the “Experiment 2 Fold change” value is 2.5 fold and the “Experiment 3 Fold change” value is on record as 2.5 fold. The “Conclusions: Is CB1R antagonist effect observed?” value on CB1R [1] was “Negative”. Moreover, the activity at 5 µM at CB1R [1] (setting [3]) was 100%. For the same molecule, on CB1R [1] (setting [4]), the activity at 5 µM was found to be 100%. For the same molecule, at CB1R [1] (setting [5]), the activity at 5 µM turned out to be 100%.

As for `COc1cc(/C=C/C(=O)CC(=O)/C=C/c2ccc(O)c(OC)c2)ccc1O` [Curcumin, diferuloylmethane (curcumin)], the “Conclusions: Is NF-κB inhibitor effect observed?” value with NF-κB (Curcumin 5 μM, alone or + THC 10 μM or + CBD 10 μM) was “+ (positive result (activity ≤50%) are considered inhibitory of NF-κB activity)”; in the assay on NF-κB (Curcumin 10 μM, alone or + THC 10 μM or + CBD 10 μM), “+ (positive result (activity ≤50%) are considered inhibitory of NF-κB activity)”; in the assay with NF-κB (Curcumin 15 μM, alone or + THC 10 μM or + CBD 10 μM) it was “+ (positive result (activity ≤50%) are considered inhibitory of NF-κB activity)”. The IC50 in the assay on NF-κB (read-out: anti-NF-κB IC50) stood at 3.91 µM. This molecule also yielded an EC50 on CB2R of 5970 µM.

Regarding `C=C[C@@]1(C)CC(=O)[C@]2(O)[C@@]3(C)[C@@H](O)CCC(C)(C)[C@@H]3[C@H](O)[C@H](OC(C)=O)[C@@]2(C)O1` [Forskolin], the activity at 1 µM on CB2R (setting [3]), at CB2R (setting [4]) and at CB2R (setting [5]) was 100% each time.

In the case of `CCCCCc1cc(O)c2c(c1)OC(C)(C)[C@@H]1CCC(C)=C[C@@H]21` [THC, tetrahydrocannabinol], the “Conclusions: Is NF-κB inhibitor effect observed?” value with NF-κB (THC 10 μM or CBD 10 μM alone) is given as “Negative”. In the assay with NF-κB (setting [6]), the “Experiment 1 % of activity” value came out at 122.2%, the “Experiment 2 % of activity” value is 84.9% and the “Experiment 3 % of activity” value came out at 88.8%. Further, on CB2R, the “Conclusions: Is CB2R agonist effect observed?” value was “Negative”, the “Experiment 1 % of activity” value amounted to 54.7%, the “Experiment 2 % of activity” value was found to be 73.7% and the “Experiment 3 % of activity” value is reported as 60.3%.

`CCCCCc1cc2c(c(O)c1C(=O)O)[C@@H]1C=C(C)CC[C@H]1C(C)(C)O2` [THCA, tetrahydrocannabinolic acid]: at CB1R [2] (THCA 10 μM or THC 10 μM alone), the “Conclusions: Is CB1R agonist effect observed?” value is “Negative”, the “Experiment 1 Fold change” value came out at 0.9 fold, the “Experiment 2 Fold change” value is given as 0.8 fold and the “Experiment 3 Fold change” value amounted to 1.1 fold. The “Conclusions: Is CB1R antagonist effect observed?” value on CB1R [1] (THCA 10 μM or THC 10 μM alone) is “Negative”. Moreover, at CB1R [1] (setting [7]), the “Experiment 1 % of activity” value is on record as 116.7%, the “Experiment 2 % of activity” value is 116.0% and the “Experiment 3 % of activity” value turned out to be 56.4%. Besides, on CB2R, the “Conclusions: Is CB2R agonist effect observed?” value is given as “Negative”, the “Experiment 1 % of activity” value came to 115.6%, the “Experiment 2 % of activity” value was 105.6% and the “Experiment 3 % of activity” value is listed as 124.6%.

Consider TNFα, for which, in the assay on NF-κB (setting [8]), the “Conclusions: Is NF-κB inhibitor effect observed?” value is on record as “Negative”, the “Experiment 1 % of activity” value is listed as 100.0%, the “Experiment 2 % of activity” value is listed as 100.0% and the “Experiment 3 % of activity” value was 100.0%.

What is called IC50 is the concentration that gives 50% inhibition. For orientation: EC50 means the concentration that produces a half-maximal response. High values mean weaker potency, low ones greater potency.
